Test results from patent US20130071854A1, “METHODS FOR THE IDENTIFICATION AND CHARACTERIZATION OF HDAC INTERACTING COMPOUNDS” (priority 2009, published 2013).
Like-named read-outs stand apart in the source and are kept apart here.

What was measured:
HDAC2 = molecular target: T1, HDAC2 (Homo sapiens, UniProt Q92769); experiment: Chemoproteomic binding profiling, K562 cell extract, SAHA/ITF2357 probe matrix (Kd app); details: protein HDAC2; class I HDAC
T1 construct: used to probe endogenous HDACs in K562 whole cell extracts; endogenous in cells

HDAC3 = molecular target: T2, HDAC3 (Homo sapiens, UniProt O15379); experiment: as above; details: for Kd: protein HDAC3, NCoR complex
T2 construct: used to probe endogenous HDACs in K562 whole cell extracts; endogenous in cells

HDAC8 = molecular target: T3, HDAC8 (Homo sapiens, UniProt Q9BY41); experiment: as above; details: protein HDAC8; class I HDAC
T3 construct: used to probe endogenous HDACs in K562 whole cell extracts; endogenous in cells

HDAC3-NCoR complex = HDAC3-NCoR complex (Homo sapiens, UniProt O15379); experiment: as above
BZW2 = molecular target: T4, BZW2 (Homo sapiens, UniProt Q9Y6E2); experiment: Competition binding assay in cell lysate, affinity matrix, MS
T4 construct: endogenous in cells
T4 sequence (Q9Y6E2 1-419): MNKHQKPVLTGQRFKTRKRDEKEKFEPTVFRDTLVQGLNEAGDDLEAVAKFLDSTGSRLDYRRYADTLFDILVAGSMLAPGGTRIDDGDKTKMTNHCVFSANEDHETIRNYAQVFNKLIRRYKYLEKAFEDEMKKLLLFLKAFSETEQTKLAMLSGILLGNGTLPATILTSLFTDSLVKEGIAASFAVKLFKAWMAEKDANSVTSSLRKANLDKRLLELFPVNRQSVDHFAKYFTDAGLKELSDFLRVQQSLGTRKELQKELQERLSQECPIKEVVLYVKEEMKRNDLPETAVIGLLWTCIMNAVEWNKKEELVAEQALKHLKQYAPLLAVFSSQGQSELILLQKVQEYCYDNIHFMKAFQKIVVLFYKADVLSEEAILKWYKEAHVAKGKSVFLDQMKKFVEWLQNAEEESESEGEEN

HSPD1 = molecular target: T5, HSPD1 (Homo sapiens, UniProt P10809); experiment: as above
T5 construct: endogenous in cells

ISOC1 = molecular target: T6, ISOC1 (Homo sapiens, UniProt Q96CN7); experiment: as above
T6 construct: endogenous in cells
T6 sequence (Q96CN7 1-298): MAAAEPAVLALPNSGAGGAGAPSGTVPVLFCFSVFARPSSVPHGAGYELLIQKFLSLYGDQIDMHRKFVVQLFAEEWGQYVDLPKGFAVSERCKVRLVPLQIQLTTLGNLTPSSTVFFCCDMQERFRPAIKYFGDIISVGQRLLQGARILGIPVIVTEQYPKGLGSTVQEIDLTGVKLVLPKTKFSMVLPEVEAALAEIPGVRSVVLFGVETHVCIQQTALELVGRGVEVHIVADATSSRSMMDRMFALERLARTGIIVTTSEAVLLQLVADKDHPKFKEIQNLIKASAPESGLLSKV

PPP4C = molecular target: T7, PPP4C (Homo sapiens, UniProt P60510); experiment: as above
T7 construct: endogenous in cells
T7 sequence (P60510 1-307): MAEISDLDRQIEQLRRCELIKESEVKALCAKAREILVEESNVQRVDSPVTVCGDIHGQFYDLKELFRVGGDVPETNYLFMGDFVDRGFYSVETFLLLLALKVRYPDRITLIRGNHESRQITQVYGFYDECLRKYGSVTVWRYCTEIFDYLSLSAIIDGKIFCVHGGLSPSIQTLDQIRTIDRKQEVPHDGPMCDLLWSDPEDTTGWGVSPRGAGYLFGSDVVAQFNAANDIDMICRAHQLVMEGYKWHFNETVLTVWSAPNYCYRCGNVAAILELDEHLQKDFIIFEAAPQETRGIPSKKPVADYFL

PTER = molecular target: T8, PTER (Homo sapiens, UniProt Q96BW5); experiment: as above
T8 construct: endogenous in cells
T8 sequence (Q96BW5 1-349): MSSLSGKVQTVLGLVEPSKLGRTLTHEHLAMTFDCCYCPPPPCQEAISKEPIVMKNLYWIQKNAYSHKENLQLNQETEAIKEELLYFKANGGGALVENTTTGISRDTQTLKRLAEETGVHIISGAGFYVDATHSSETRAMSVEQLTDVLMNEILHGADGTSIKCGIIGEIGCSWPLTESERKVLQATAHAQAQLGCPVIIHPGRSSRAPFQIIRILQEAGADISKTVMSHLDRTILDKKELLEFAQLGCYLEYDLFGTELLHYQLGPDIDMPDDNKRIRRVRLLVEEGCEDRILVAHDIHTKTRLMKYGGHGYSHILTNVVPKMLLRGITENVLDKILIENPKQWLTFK

GATAD2B = experiment: Competition binding assay in cell lysate, affinity matrix, MS (Mi-2/NuRD interactor); details: K-562 cell lysate
MBD3 = experiment: as above; details: K-562 cell lysate
MTA2 = experiment: as above
RBBP7 = experiment: Competition binding assay in cell lysate, affinity matrix, MS (Sin3/Mi2-NuRD interactor); details: K-562 cell lysate
[1] = protein GPS2, read-out: Kd^app GPS2
[2] = protein NCOR1, read-out: Kd^app NCOR1
[3] = protein NCOR2, read-out: Kd^app NCOR2
[4] = protein TBL1X, read-out: Kd^app TBL1X
[5] = protein TBL1XR1, read-out: Kd^app TBL1XR1

T5 sequence (P10809 27-573): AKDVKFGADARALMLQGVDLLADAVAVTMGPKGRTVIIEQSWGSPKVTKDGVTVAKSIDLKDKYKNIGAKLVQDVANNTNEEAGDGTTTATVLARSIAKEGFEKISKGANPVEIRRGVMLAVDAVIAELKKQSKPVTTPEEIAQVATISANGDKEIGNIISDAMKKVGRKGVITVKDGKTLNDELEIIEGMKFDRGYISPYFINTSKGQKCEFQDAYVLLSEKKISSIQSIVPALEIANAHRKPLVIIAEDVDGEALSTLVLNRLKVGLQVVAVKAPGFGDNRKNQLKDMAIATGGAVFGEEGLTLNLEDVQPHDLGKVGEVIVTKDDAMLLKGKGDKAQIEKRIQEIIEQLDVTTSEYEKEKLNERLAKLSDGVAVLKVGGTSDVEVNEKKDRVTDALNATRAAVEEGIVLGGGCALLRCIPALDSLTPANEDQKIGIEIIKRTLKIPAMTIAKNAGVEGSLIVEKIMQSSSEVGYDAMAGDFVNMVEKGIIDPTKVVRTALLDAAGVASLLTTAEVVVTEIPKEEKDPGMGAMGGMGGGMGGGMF
HDAC3-NCoR complex, sequence (O15379 whole entry, one chain of several): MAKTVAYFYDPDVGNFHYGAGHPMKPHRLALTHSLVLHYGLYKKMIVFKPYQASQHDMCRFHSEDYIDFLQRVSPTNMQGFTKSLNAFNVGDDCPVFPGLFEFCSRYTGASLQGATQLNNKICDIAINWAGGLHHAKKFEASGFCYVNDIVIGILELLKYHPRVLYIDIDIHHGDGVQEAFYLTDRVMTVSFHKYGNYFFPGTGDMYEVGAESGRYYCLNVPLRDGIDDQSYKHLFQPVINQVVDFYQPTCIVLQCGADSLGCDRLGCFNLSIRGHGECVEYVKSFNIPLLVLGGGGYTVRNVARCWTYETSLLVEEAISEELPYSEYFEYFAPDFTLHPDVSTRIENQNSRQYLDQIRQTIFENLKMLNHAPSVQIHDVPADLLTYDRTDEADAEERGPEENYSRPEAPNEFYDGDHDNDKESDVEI
T2 sequence (O15379 whole entry): as the sequence (O15379 whole entry, one chain of several) above
T2 sequence (O75376 whole entry partner): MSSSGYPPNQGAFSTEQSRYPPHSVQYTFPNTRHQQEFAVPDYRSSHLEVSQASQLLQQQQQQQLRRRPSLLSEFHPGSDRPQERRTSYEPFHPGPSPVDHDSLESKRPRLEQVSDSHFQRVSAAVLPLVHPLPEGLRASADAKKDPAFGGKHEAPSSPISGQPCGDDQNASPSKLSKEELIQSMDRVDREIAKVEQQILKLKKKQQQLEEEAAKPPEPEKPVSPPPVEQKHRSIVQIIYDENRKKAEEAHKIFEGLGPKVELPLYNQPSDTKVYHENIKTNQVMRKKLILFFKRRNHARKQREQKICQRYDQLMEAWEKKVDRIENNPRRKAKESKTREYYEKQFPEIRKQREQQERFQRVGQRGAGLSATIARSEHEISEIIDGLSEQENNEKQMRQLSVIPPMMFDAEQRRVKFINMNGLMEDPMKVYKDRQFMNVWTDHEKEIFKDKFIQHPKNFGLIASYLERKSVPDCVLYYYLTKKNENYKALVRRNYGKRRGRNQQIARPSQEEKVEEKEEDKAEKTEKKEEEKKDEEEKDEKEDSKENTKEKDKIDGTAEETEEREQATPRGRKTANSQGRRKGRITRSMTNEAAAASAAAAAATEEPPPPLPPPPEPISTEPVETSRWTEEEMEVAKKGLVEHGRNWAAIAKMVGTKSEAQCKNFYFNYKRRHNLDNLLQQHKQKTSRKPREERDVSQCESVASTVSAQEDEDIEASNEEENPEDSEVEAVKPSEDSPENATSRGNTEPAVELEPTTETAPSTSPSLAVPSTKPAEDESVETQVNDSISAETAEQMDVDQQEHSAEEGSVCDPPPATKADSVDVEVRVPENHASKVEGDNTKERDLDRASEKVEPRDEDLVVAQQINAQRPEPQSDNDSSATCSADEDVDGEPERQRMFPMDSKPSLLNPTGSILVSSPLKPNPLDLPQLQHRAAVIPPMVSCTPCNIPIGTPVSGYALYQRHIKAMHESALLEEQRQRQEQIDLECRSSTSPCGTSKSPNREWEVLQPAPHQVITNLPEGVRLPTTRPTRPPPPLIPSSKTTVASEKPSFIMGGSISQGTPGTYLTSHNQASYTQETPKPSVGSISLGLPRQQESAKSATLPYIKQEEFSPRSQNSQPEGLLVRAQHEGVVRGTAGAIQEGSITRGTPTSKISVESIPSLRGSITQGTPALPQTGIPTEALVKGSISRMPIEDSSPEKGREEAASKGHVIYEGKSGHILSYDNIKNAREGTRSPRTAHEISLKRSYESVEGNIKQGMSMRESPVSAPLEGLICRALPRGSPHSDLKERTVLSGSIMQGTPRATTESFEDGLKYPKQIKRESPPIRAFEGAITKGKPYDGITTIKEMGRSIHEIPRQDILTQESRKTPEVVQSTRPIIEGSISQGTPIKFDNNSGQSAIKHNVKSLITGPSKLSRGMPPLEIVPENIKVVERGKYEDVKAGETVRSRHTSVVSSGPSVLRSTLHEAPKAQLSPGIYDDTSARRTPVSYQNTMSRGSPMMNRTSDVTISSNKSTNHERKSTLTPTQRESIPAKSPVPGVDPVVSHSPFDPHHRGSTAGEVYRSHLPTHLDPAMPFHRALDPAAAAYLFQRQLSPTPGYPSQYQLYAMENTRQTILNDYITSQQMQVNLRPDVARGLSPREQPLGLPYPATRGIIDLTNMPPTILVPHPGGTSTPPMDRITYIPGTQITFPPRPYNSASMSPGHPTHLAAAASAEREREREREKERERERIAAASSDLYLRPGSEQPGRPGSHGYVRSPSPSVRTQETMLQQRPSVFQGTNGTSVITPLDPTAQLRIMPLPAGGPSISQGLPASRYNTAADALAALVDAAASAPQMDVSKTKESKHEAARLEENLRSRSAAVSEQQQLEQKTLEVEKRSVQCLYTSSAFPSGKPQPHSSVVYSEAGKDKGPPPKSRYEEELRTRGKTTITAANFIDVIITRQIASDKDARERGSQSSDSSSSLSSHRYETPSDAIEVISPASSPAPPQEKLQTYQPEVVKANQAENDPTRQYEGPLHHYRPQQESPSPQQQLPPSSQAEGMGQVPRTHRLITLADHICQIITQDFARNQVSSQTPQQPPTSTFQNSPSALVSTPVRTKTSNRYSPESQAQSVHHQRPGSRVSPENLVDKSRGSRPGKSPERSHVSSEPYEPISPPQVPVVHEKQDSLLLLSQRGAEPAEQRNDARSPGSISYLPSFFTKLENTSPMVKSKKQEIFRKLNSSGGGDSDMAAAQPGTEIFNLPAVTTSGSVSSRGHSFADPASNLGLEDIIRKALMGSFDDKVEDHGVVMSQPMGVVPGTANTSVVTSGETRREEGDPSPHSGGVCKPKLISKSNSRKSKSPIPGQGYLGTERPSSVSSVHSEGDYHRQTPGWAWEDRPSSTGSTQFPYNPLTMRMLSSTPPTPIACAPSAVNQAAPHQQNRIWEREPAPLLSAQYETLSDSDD
T2 sequence (O60907 whole entry partner): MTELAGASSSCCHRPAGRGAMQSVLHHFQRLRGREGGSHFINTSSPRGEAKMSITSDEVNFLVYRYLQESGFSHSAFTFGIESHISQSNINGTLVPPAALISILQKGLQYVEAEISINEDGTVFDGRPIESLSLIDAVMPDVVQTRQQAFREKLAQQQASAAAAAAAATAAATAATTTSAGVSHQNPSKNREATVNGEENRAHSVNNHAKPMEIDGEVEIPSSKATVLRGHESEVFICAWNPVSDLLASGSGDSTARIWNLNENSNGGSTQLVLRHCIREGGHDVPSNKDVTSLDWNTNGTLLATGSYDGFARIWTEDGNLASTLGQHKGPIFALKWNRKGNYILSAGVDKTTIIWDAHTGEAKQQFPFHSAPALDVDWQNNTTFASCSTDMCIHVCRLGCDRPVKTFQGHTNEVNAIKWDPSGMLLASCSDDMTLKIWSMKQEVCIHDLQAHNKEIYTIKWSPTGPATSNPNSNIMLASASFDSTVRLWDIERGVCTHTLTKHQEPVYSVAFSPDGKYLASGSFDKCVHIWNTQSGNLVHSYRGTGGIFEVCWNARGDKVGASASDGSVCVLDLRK
T2 sequence (Q9BZK7 whole entry partner): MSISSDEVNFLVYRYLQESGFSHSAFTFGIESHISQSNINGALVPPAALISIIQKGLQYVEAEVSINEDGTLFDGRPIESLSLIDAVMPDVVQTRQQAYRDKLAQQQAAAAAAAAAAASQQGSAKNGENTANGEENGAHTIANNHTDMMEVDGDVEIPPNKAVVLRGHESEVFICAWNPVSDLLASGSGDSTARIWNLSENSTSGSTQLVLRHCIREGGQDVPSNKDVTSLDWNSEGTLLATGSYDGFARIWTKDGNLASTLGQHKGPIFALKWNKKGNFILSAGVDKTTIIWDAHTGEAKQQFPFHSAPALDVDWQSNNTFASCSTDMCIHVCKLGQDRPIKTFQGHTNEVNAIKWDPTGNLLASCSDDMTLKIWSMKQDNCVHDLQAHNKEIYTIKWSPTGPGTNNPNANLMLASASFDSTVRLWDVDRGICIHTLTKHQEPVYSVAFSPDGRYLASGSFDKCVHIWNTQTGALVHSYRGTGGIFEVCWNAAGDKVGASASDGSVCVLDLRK
T2 sequence (Q13227 whole entry partner): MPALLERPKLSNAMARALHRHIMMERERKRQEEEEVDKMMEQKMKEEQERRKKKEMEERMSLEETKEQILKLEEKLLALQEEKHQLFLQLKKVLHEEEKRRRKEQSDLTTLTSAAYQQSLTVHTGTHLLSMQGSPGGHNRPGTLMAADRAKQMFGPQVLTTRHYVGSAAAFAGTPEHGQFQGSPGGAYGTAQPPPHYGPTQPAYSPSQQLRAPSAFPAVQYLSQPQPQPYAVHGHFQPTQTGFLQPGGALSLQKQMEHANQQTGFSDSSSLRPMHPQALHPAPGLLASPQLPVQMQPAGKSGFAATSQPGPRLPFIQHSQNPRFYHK

For Nc1ccccc1NC(=O)CCCCCCC(=O)Nc1ccccc1 [BML-210], the Kd (HDAC2) was 35 µM, the “selectivity for HDAC3 over HDAC1/HDAC2 (in words)” value (HDAC3; K562 cell extract, compared with SAHA) was “increase in selectivity for HDAC3 over HDAC1/HDAC2” and the Kd (HDAC3) was 7 µM. It also gave a Kd (HDAC8) of over 85 µM, a Kd (HDAC3-NCoR complex; [1]) of 4 µM and a Kd (HDAC3-NCoR complex; [2]) of 7 µM. It also gave a Kd (HDAC3-NCoR complex; [3]) of 15 µM, a Kd (HDAC3-NCoR complex; [4]) of 4 µM and a Kd (HDAC3-NCoR complex; [5]) of 4 µM.
CCCCOc1ccc(CC(=O)NO)cc1 [bufexamac] gave a Kd (HDAC2) of over 59.7 µM, a Kd (HDAC3) of 348 µM and a Kd (HDAC8) of 243 µM. For the same compound, the Kd (HDAC3-NCoR complex; [1]) was 599 µM, the Kd (HDAC3-NCoR complex; [2]) was over 59.7 µM and the Kd (HDAC3-NCoR complex; [3]) was 418 µM. The Kd (HDAC3-NCoR complex; [4]) was 542 µM and the Kd (HDAC3-NCoR complex; [5]) was 530 µM.
Compound O=C(CCCCCCC(=O)Nc1ccccc1)NO [SAHA, suberoylanilide hydroxamic acid] has an IC50 (BZW2; IC50, BZW2, K-562 cell lysate) of 3.07 µM, an IC50 (BZW2; IC50, BZW2, mix of Jurkat and Ramos cell lysates) of 10 µM and an IC50 (HSPD1; IC50, HSPD1, mix of Jurkat and Ramos cell lysates) of 10 µM. It also gave an IC50 (HSPD1; read-out: IC50) of at least 10 µM, an IC50 (ISOC1; IC50, ISOC1, K-562 cell lysate) of 1.1 µM and an IC50 (ISOC1; IC50, ISOC1, mix of Jurkat and Ramos cell lysates) of 2.19 µM. It also gave an IC50 (PPP4C; IC50, PPP4C, mix of Jurkat and Ramos cell lysates) of 10 µM, an IC50 (PPP4C; read-out: IC50) of at least 10 µM and an IC50 (PTER) of at least 10 µM. It also gave an IC50 (PTER; IC50, PTER, mix of Jurkat and Ramos cell lysates) of 10 µM, an IC50 (GATAD2B) of 2.5 µM and an IC50 (MBD3) of 0.61 µM. It also gave an IC50 (MTA2; K-562 cell lysate) of 10 µM, an IC50 (MTA2; mix of Jurkat and Ramos cell lysates) of 0.53 µM and an IC50 (RBBP7) of 10 µM.
Compound Nc1ccccc1NC(=O)c1ccc(CNC(=O)OCc2cccnc2)cc1 [MS-275] has an IC50 (BZW2; read-out: IC50) of at least 300 µM, an IC50 (HSPD1; read-out: IC50) of at least 300 µM and an IC50 (ISOC1; read-out: IC50) of at least 300 µM. It also gave an IC50 (PPP4C; read-out: IC50) of at least 300 µM, an IC50 (PTER) of at least 300 µM and an IC50 (GATAD2B) of 300 µM. For the same compound, the IC50 (MBD3) was 300 µM, the IC50 (MTA2; K-562 cell lysate) was 300 µM and the IC50 (RBBP7) was 300 µM.
